PubChem BioAssay (NCI)
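Exposure lasted 48 hours, with cells grown in 96-well plates and compounds tested at five concentrations. TGI is the concentration that stops growth completely.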

What was measured:
Test in all cases: growth of human tumour cells (NCI), 48 h
786-0 renal = test system: 786-0 renal
A549 NSCLC = test system: A549 NSCLC
ACHN renal = test system: ACHN renal
BT-549 breast = test system: BT-549 breast
CCRF-CEM leukemia = test system: CCRF-CEM leukemia
COLO 205 colon = test system: COLO 205 colon
DU-145 prostate = test system: DU-145 prostate
EKVX NSCLC = test system: EKVX NSCLC
HCC-2998 colon = test system: HCC-2998 colon
HCT-116 colon = test system: HCT-116 colon
HCT-15 colon = test system: HCT-15 colon
HL-60(TB) leukemia = test system: HL-60(TB) leukemia
HOP-62 NSCLC = test system: HOP-62 NSCLC
HOP-92 NSCLC = test system: HOP-92 NSCLC
HS 578T breast = test system: HS 578T breast
HT29 colon = test system: HT29 colon
IGROV1 ovarian = test system: IGROV1 ovarian
K-562 leukemia = test system: K-562 leukemia
KM12 colon = test system: KM12 colon
LOX IMVI melanoma = test system: LOX IMVI melanoma
M14 melanoma = test system: M14 melanoma
MALME-3M melanoma = test system: MALME-3M melanoma
MCF7 breast = test system: MCF7 breast
MDA-MB-231 breast = test system: MDA-MB-231 breast
MDA-MB-435 = test system: MDA-MB-435
MDA-N = test system: MDA-N
MOLT-4 leukemia = test system: MOLT-4 leukemia
NCI-H226 lung = test system: NCI-H226 lung
NCI-H23 lung = test system: NCI-H23 lung
NCI-H460 lung = test system: NCI-H460 lung
NCI-H522 lung = test system: NCI-H522 lung
NCI/ADR-RES ovarian = test system: NCI/ADR-RES ovarian
OVCAR-3 ovarian = test system: OVCAR-3 ovarian
OVCAR-4 ovarian = test system: OVCAR-4 ovarian
OVCAR-5 ovarian = test system: OVCAR-5 ovarian
OVCAR-8 ovarian = test system: OVCAR-8 ovarian
PC-3 prostate = test system: PC-3 prostate
RPMI-8226 leukemia = test system: RPMI-8226 leukemia
SF-268 CNS = test system: SF-268 CNS
SF-295 CNS = test system: SF-295 CNS
SK-MEL-2 melanoma = test system: SK-MEL-2 melanoma
SK-MEL-28 melanoma = test system: SK-MEL-28 melanoma
SK-MEL-5 melanoma = test system: SK-MEL-5 melanoma
SK-OV-3 ovarian = test system: SK-OV-3 ovarian
SN12C renal = test system: SN12C renal
SNB-19 CNS = test system: SNB-19 CNS
SNB-75 CNS = test system: SNB-75 CNS
SW-620 colon = test system: SW-620 colon
T-47D breast = test system: T-47D breast
TK-10 renal = test system: TK-10 renal
U251 CNS = test system: U251 CNS
UACC-62 melanoma = test system: UACC-62 melanoma
UO-31 renal = test system: UO-31 renal
A498 renal = test system: A498 renal
CAKI-1 renal = test system: CAKI-1 renal
RXF 393 renal = test system: RXF 393 renal
SF-539 CNS = test system: SF-539 CNS
SR leukemia = test system: SR leukemia
UACC-257 melanoma = test system: UACC-257 melanoma

Structure (SMILES): c1cc(-c2ccc(-c3ccc(-c4ccc(-c5cccc6nsnc56)[nH]4)c4nsnc34)[nH]2)c2nsnc2c1
- TGI (786-0 renal): > 100 µM
- TGI (A549 NSCLC): > 100 µM
- TGI (ACHN renal): > 100 µM
- TGI (BT-549 breast): > 100 µM
- TGI (CCRF-CEM leukemia): > 100 µM
- TGI (COLO 205 colon): > 100 µM
- TGI (DU-145 prostate): > 100 µM
- TGI (EKVX NSCLC): > 100 µM
- TGI (HCC-2998 colon): > 100 µM
- TGI (HCT-116 colon): > 100 µM
- TGI (HCT-15 colon): > 100 µM
- TGI (HL-60(TB) leukemia): 30.1 µM
- TGI (HOP-62 NSCLC): > 100 µM
- TGI (HOP-92 NSCLC): > 100 µM
- TGI (HS 578T breast): > 100 µM
- TGI (HT29 colon): > 100 µM
- TGI (IGROV1 ovarian): > 100 µM
- TGI (K-562 leukemia): > 100 µM
- TGI (KM12 colon): > 100 µM
- TGI (LOX IMVI melanoma): > 100 µM
- TGI (M14 melanoma): > 100 µM
- TGI (MALME-3M melanoma): > 100 µM
- TGI (MCF7 breast): > 100 µM
- TGI (MDA-MB-231 breast): > 100 µM
- TGI (MDA-MB-435): > 100 µM
- TGI (MDA-N): > 100 µM
- TGI (MOLT-4 leukemia): > 100 µM
- TGI (NCI-H226 lung): > 100 µM
- TGI (NCI-H23 lung): > 100 µM
- TGI (NCI-H460 lung): > 100 µM
- TGI (NCI-H522 lung): > 100 µM
- TGI (NCI/ADR-RES ovarian): > 100 µM
- TGI (OVCAR-3 ovarian): > 100 µM
- TGI (OVCAR-4 ovarian): > 100 µM
- TGI (OVCAR-5 ovarian): > 100 µM
- TGI (OVCAR-8 ovarian): > 100 µM
- TGI (PC-3 prostate): > 100 µM
- TGI (RPMI-8226 leukemia): > 100 µM
- TGI (SF-268 CNS): > 100 µM
- TGI (SF-295 CNS): > 100 µM
- TGI (SK-MEL-2 melanoma): > 100 µM
- TGI (SK-MEL-28 melanoma): > 100 µM
- TGI (SK-MEL-5 melanoma): > 100 µM
- TGI (SK-OV-3 ovarian): > 100 µM
- TGI (SN12C renal): > 100 µM
- TGI (SNB-19 CNS): > 100 µM
- TGI (SNB-75 CNS): > 100 µM
- TGI (SW-620 colon): > 100 µM
- TGI (T-47D breast): > 100 µM
- TGI (TK-10 renal): > 100 µM
- TGI (U251 CNS): > 100 µM
- TGI (UACC-62 melanoma): > 100 µM
- TGI (UO-31 renal): > 100 µM

Structure (SMILES): C=C1C(=O)O[C@@H]2O[C@@]3(C)CC[C@H]4[C@H](C)CC[C@@H]1[C@@]24O3
- TGI (786-0 renal): 41.3 µM
- TGI (A498 renal): > 100 µM
- TGI (A549 NSCLC): > 100 µM
- TGI (ACHN renal): 26.9 µM
- TGI (BT-549 breast): 22.2 µM
- TGI (CAKI-1 renal): 46.4 µM
- TGI (CCRF-CEM leukemia): 11.8 µM
- TGI (COLO 205 colon): 34.3 µM
- TGI (DU-145 prostate): 27.5 µM
- TGI (EKVX NSCLC): 48.7 µM
- TGI (HCC-2998 colon): 41 µM
- TGI (HCT-116 colon): 32.2 µM
- TGI (HCT-15 colon): 27.6 µM
- TGI (HL-60(TB) leukemia): > 100 µM
- TGI (HOP-62 NSCLC): > 100 µM
- TGI (HOP-92 NSCLC): 12.4 µM
- TGI (HS 578T breast): > 100 µM
- TGI (HT29 colon): 83.5 µM
- TGI (IGROV1 ovarian): 28.3 µM
- TGI (K-562 leukemia): > 100 µM
- TGI (KM12 colon): 21.3 µM
- TGI (LOX IMVI melanoma): 40.1 µM
- TGI (M14 melanoma): > 100 µM
- TGI (MALME-3M melanoma): 86.4 µM
- TGI (MCF7 breast): 25.3 µM
- TGI (MDA-MB-231 breast): 81.8 µM
- TGI (MDA-MB-435): > 100 µM
- TGI (MDA-N): > 100 µM
- TGI (MOLT-4 leukemia): 38.9 µM
- TGI (NCI-H226 lung): > 100 µM
- TGI (NCI-H23 lung): 40.1 µM
- TGI (NCI-H460 lung): 65.9 µM
- TGI (NCI-H522 lung): 62.8 µM
- TGI (OVCAR-3 ovarian): 93.5 µM
- TGI (OVCAR-4 ovarian): 36.3 µM
- TGI (OVCAR-5 ovarian): > 100 µM
- TGI (PC-3 prostate): 52.7 µM
- TGI (RPMI-8226 leukemia): 36.8 µM
- TGI (RXF 393 renal): 54.7 µM
- TGI (SF-268 CNS): > 100 µM
- TGI (SF-295 CNS): > 100 µM
- TGI (SF-539 CNS): 32.2 µM
- TGI (SK-MEL-2 melanoma): 46.9 µM
- TGI (SK-MEL-28 melanoma): > 100 µM
- TGI (SK-MEL-5 melanoma): > 100 µM
- TGI (SK-OV-3 ovarian): > 100 µM
- TGI (SN12C renal): 59.2 µM
- TGI (SNB-19 CNS): > 100 µM
- TGI (SR leukemia): 47 µM
- TGI (SW-620 colon): > 100 µM
- TGI (T-47D breast): 38.1 µM
- TGI (TK-10 renal): 32.7 µM
- TGI (U251 CNS): > 100 µM
- TGI (UACC-257 melanoma): 47.9 µM
- TGI (UACC-62 melanoma): 29.7 µM
- TGI (UO-31 renal): 63 µM
